Data published in ChEMBL document CHEMBL3259784, “Synthesis of novel 2-mercaptobenzoxazole based 1,2,3-triazoles as inhibitors of proinflammatory cytokines and suppressors of COX-2 gene expression” (Eur J Med Chem, 2014).
Activity calls are given as the source filed them. The rule behind the calls is not given here.

How the values were obtained:
Rattus norvegicus [1] = assay: Antiinflammatory activity in Albino Wistar rat assessed as inhibition of carrageenan-induced hind paw edema at 0.05 mmol/kg, po treated 1 hr before carrageenan challenge by plethysmometer analysis; format: functional, organism-based; details: TDE = time-dependent effect
[2] = target: Prostaglandin G/H synthase 1 (Homo sapiens, UniProt P23219); assay: Inhibition of COX-1 (unknown origin)
Prostaglandin G/H synthase 1, sequence (P23219 whole entry): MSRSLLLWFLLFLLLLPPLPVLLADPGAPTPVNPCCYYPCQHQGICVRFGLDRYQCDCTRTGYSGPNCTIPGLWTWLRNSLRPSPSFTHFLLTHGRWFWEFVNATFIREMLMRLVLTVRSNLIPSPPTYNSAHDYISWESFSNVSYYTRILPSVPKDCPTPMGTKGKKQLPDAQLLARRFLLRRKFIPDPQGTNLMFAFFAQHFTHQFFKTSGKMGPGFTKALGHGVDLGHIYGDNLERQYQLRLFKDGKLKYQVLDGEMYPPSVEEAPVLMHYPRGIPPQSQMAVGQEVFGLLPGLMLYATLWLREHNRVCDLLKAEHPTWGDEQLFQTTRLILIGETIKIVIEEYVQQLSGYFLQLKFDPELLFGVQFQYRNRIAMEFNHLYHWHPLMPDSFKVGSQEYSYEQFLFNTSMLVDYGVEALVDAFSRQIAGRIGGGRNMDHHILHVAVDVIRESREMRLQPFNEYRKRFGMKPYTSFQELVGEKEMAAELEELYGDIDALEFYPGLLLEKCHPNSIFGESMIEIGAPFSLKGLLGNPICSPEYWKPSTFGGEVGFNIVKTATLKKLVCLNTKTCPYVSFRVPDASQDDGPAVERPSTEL

[3] = target: T1, Prostaglandin G/H synthase 2 (Homo sapiens, UniProt P35354); assay: Inhibition of COX-2 (unknown origin)
T1 sequence (P35354 whole entry): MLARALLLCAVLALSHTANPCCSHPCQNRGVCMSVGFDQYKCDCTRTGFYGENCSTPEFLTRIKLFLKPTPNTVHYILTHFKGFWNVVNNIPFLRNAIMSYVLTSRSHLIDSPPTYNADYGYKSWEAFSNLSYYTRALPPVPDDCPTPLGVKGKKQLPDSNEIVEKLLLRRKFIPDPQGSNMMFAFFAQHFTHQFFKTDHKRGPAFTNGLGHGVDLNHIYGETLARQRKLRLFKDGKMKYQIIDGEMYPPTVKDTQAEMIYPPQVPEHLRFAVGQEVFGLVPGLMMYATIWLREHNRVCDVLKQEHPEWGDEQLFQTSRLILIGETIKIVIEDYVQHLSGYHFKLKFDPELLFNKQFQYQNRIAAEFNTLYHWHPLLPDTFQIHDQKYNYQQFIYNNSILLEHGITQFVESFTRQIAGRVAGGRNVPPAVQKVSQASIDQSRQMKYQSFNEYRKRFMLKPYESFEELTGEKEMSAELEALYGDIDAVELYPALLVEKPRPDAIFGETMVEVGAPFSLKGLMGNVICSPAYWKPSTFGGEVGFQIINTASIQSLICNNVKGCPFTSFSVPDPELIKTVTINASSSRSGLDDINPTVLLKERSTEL

Rattus norvegicus [4] = assay: Antiinflammatory activity against carrageenan-induced hind paw Albino Wistar rat model assessed as reduction in nitric oxide level in hind paw at 0.05 mmol/kg, po treated 1 hr before carrageenan challenge by griess reagent based microplate reader analysis; format: functional, organism-based
Rattus norvegicus [5] = assay: Antiinflammatory activity against carrageenan-induced hind paw Albino Wistar rat model assessed as reduction in serum IL-1 beta level at 0.05 mmol/kg, po treated 1 hr before carrageenan challenge by ELISA; format: functional
Rattus norvegicus [6] = assay: Antiinflammatory activity against carrageenan-induced hind paw Albino Wistar rat model assessed as reduction in serum TNF-alpha level at 0.05 mmol/kg, po treated 1 hr before carrageenan challenge by ELISA; format: functional
Rattus norvegicus [7] = assay: Antiinflammatory activity against carrageenan-induced hind paw Albino Wistar rat model assessed as reduction in serum COX2 level at 0.05 mmol/kg, po treated 1 hr before carrageenan challenge by ELISA; format: functional
Rattus norvegicus [8] = assay: Antioxidant activity in carrageenan-induced hind paw Albino Wistar rat model assessed as increase in GSH level in hind paw joint at 0.05 mmol/kg, po treated 1 hr before carrageenan challenge measured per gm of tissue by plate reader analysis (reference value: 0.58 +/-0.02 ug); format: functional
Rattus norvegicus [9] = assay: Antioxidant activity in carrageenan-induced hind paw Albino Wistar rat model assessed as inhibition of lipid peroxidation by measuring TBARS level in hind paw at 0.05 mmol/kg, po treated 1 hr before carrageenan challenge by microplate reader analysis; format: functional
Rattus norvegicus [10] = assay: Ulcerogenicity in Albino Wistar rat assessed as gastric ulceration and rupture of gastric mucosal layer at 0.15 mmol/kg, po measured after 5 hrs; format: toxicity, organism-based, Gastric mucosa; details: in vivo
Rattus norvegicus [11] = assay: Antiinflammatory activity in Albino Wistar rat assessed as inhibition of carrageenan-induced hind paw edema at 0.05 mmol/kg, po treated 1 hr before carrageenan challenge measured 5 hrs post-carrageenan injection by plethysmometer analysis; format: functional
Rattus norvegicus [12] = assay: Antiinflammatory activity in Albino Wistar rat assessed as inhibition of carrageenan-induced hind paw edema at 0.05 mmol/kg, po treated 1 hr before carrageenan challenge measured 3 hrs post-carrageenan injection by plethysmometer analysis; format: functional
Rattus norvegicus [13] = assay: Antiinflammatory activity against carrageenan-induced hind paw Albino Wistar rat model assessed as reduction in nitric oxide level in hind paw at 0.05 mmol/kg, po treated 1 hr before carrageenan challenge measured per mg of wet tissue by griess reagent based microplate reader analysis; format: functional
Mus musculus = assay: Antinociceptive activity in mouse assessed as inhibition of acetic acid-induced writhing at 0.05 mmol/kg, po administered 30 mins prior to acetic acid challenge measured for 20 mins after acetic acid injection; format: functional
HeLa = assay: Decrease in COX-2 gene expression in human HeLa cells at 10 uM after 24 hrs by real time PCR analysis relative to celecoxib; format: functional

Row | IC50 [2] [µM] | IC50 [3] [µM] | Compound | inhibition (Rattus norvegicus [1]) | inhibition (Rattus norvegicus [4]) | also measured
1 | 107 | 6.42 | c1ccc(-n2cc(CSc3nc4ccccc4o3)nn2)cc1 | tde | Active | –
2 | 44.4 | 3.53 | Clc1ccccc1-n1cc(CSc2nc3ccccc3o2)nn1 | tde | Active | –
3 | 38.4 | 2.75 | Brc1ccccc1-n1cc(CSc2nc3ccccc3o2)nn1 | tde | Active | –
4 | 88.3 | 4.63 | Clc1cccc(-n2cc(CSc3nc4ccccc4o3)nn2)c1 | tde | Active | –
5 | 115 | 9.87 | O=[N+]([O-])c1ccc(-n2cc(CSc3nc4ccccc4o3)nn2)cc1 | tde | Active | –
6 | 154 | 3.85 | CC(C)(C)c1ccc(-n2cc(CSc3nc4ccccc4o3)nn2)cc1 | tde | Active | –
7 | 192 | 5.21 | Fc1ccc(-n2cc(CSc3nc4ccccc4o3)nn2)cc1 | tde | Active | –
8 | 24.2 | 2.4 | Fc1ccccc1-n1cc(CSc2nc3ccccc3o2)nn1 | tde | Active | –
9 | 140 | 4.35 | Cc1ccc(-n2cc(CSc3nc4ccccc4o3)nn2)cc1C | tde | Active | –
10 | 104 | 9.58 | O=[N+]([O-])c1cccc(-n2cc(CSc3nc4ccccc4o3)nn2)c1 | tde | Active | –
11 | 163 | 3.5 | CCOc1ccc(-n2cc(CSc3nc4ccccc4o3)nn2)cc1 | tde | Active | Activity (Rattus norvegicus [5]): 2.66 pg/mL; inhibition (Rattus norvegicus [6]): Active; inhibition (Rattus norvegicus [7]): Active; Activity (Rattus norvegicus [8]): 0.84 µg; Activity (Rattus norvegicus [9]): 5.1 nmol; Activity (Rattus norvegicus [10]): Non-toxic
12 | 132 | 4.68 | Cc1ccccc1-n1cc(CSc2nc3ccccc3o2)nn1 | tde | Active | –
13 | 103 | 5.03 | Clc1ncccc1-n1cc(CSc2nc3ccccc3o2)nn1 | tde | Active | –
14 | 96.6 | 3.98 | c1cncc(-n2cc(CSc3nc4ccccc4o3)nn2)c1 | tde | Active | –
15 | – | – | Cc1ccc(-c2cc(C(F)(F)F)nn2-c2ccc(S(N)(=O)=O)cc2)cc1 [CELECOXIB] | – | Active | inhibition in vivo at 50 µmol/kg (Rattus norvegicus [11]): 65.5%; inhibition in vivo at 50 µmol/kg (Rattus norvegicus [12]): 72.2%; Activity (Rattus norvegicus [5]): 2.9 pg/mL; Activity (Rattus norvegicus [6]): 3.35 pg/mL; Activity (Rattus norvegicus [7]): 7.9 nmol/min/mL; Activity (Rattus norvegicus [13]): 5.5 µmol; Activity (Rattus norvegicus [8]): 0.81 µg; Activity (Rattus norvegicus [9]): 6.3 nmol; inhibition in vivo at 50 µmol/kg (Mus musculus): 70.9%
16 | 80.8 | 1.9 | Clc1ccc(-n2cc(CSc3nc4ccccc4o3)nn2)cc1 | tde | Active | inhibition in vivo at 50 µmol/kg (Rattus norvegicus [11]): 55.5%; inhibition in vivo at 50 µmol/kg (Rattus norvegicus [12]): 68.9%; inhibition (Rattus norvegicus [5]): Active; inhibition (Rattus norvegicus [6]): Active; inhibition (Rattus norvegicus [7]): Active; inhibition in vivo at 50 µmol/kg (Mus musculus): 51.5%; Activity (Rattus norvegicus [10]): Non-toxic
17 | 89.4 | 2.3 | COc1ccc(-n2cc(CSc3nc4ccccc4o3)nn2)cc1 | tde | Active | inhibition (Rattus norvegicus [5]): Active; Activity (Rattus norvegicus [6]): 3.1 pg/mL; Activity (Rattus norvegicus [7]): 6.54 nmol/min/mL; inhibition in vivo at 50 µmol/kg (Mus musculus): 55.5%; Activity (Rattus norvegicus [10]): Non-toxic
18 | 246 | 3.8 | CCc1ccc(-n2cc(CSc3nc4ccccc4o3)nn2)cc1 | tde | Active | inhibition in vivo at 50 µmol/kg (Rattus norvegicus [11]): 61.1%; inhibition in vivo at 50 µmol/kg (Rattus norvegicus [12]): 66.7%; inhibition (Rattus norvegicus [5]): Active; inhibition (Rattus norvegicus [6]): Active; inhibition (Rattus norvegicus [7]): Active; fold change (FC) (HeLa): 0.94; Activity (Rattus norvegicus [13]): 5.1 µmol; Activity (Rattus norvegicus [8]): 0.84 µg; Activity (Rattus norvegicus [10]): Non-toxic
19 | 186 | 2.8 | Brc1ccc(-n2cc(CSc3nc4ccccc4o3)nn2)cc1 | tde | Active | inhibition (Rattus norvegicus [5]): Active; inhibition (Rattus norvegicus [6]): Active; inhibition (Rattus norvegicus [7]): Active; fold change (FC) (HeLa): 0.79; Activity (Rattus norvegicus [10]): Non-toxic
